Reference: PMC9933611 (2023)

Columns and labels:
[1] = system: Re-engineered ATP-binding aptamer, 70-nt poly-T linker (DNA, aptamer) ACCTGGGGGAGTATTTTTTTTTTTTTTTTTTTTTTTTTTTTTTTTTTTTTTTTTTTTTTTTTTTTTTTTTTTTTTTTTTTTTTTTGCGGAGGAAGGA; test: fluorescence melting (AF488/BHQ-1); details: 10 mM Mg2+; 100 mM Tris HCl, pH 6.5; 3 mM ATP, 50 nM aptamer; temperature of 50% ligand release, not a shift
[2] = system: Re-engineered ATP-binding aptamer, 4-nt poly-T linker (DNA, aptamer) ACCTGGGGGAGTATTTTTTGCGGAGGAAGGA; test: fluorescence melting (AF488/BHQ-1); details: 10 mM Mg2+; 100 mM Tris HCl, pH 6.5; 3 mM ATP, 50 nM aptamer; temperature of 50% ligand release, not a shift

T50% [1]: 43.2 ± 0.5 °C
T50% [2]: 59.0 ± 0.5 °C
SMILES: Nc1ncnc2c1ncn2[C@@H]1O[C@H](COP(=O)(O)OP(=O)(O)OP(=O)(O)O)[C@@H](O)[C@H]1O
